Test results reported in patent US20070128217A1 (priority 2003, published 2007).

Tests used:
[1] = tested on: antibodies in sera from SARS patients (sera 1a, 1b, 2, 6, 37, 62, London, SARS-yellow, SARS-green); assay type: binding, human; design: Binding of serum 6 to linear peptides of protein X1 of SARS-CoV Urbani / Binding of serum 37 to linear peptides of protein X1 of SARS-CoV Urbani / Binding of serum 6 to looped/cyclic peptide (PEPSCAN-ELISA) / Binding of serum 37 to looped/cyclic peptide (PEPSCAN-ELISA) / Binding of serum 37 to looped/cyclic peptides of protein X1 of SARS-CoV Urbani / Binding of serum 6 to linear peptides of protein X2 / Binding of serum 37 to linear peptides of protein X2 / Binding of serum 37 to looped/cyclic peptides of protein X2 of SARS-CoV Urbani / Binding of serum 6 to linear peptides of protein M of SARS-CoV Urbani / Binding of serum 37 to linear peptides of protein M of SARS-CoV Urbani / Binding of serum 6 to looped/cyclic peptides of protein M of SARS-CoV Urbani / Binding of serum 37 to looped/cyclic peptides of protein M of SARS-CoV Urbani / Binding of serum 6 to linear peptides of protein X3 of SARS-CoV Urbani / Binding of serum 37 to linear peptides of protein X3 of SARS-CoV Urbani / Binding of serum 37 to looped/cyclic peptides of protein X3 of SARS-CoV Urbani / Binding of serum 6 to linear peptides of protein X4 of SARS-CoV Urbani / Binding of serum 37 to linear peptides of protein X4 of SARS-CoV Urbani / Binding of serum 37 to looped/cyclic peptides of protein X4 of SARS-CoV Urbani / Binding of serum 6 to linear peptides of protein X5 of SARS-CoV Urbani / Binding of serum 37 to linear peptides of protein X5 of SARS-CoV Urbani / Binding of serum 37 to looped/cyclic peptides of protein X5 of SARS-CoV Urbani / Binding of serum 6 to linear peptides of protein N of SARS-CoV Urbani / Binding of serum 37 to linear peptides of protein N of SARS-CoV Urbani / Binding of serum 6 to linear peptide (PEPSCAN-ELISA) / Binding of serum 1a to looped/cyclic peptides of protein N of SARS-CoV Urbani / Binding of serum 1b to looped/cyclic peptides of protein N of SARS-CoV Urbani / Binding of serum 2 to looped/cyclic peptides of protein N of SARS-CoV Urbani / Binding of serum 6 to looped/cyclic peptides of protein N of SARS-CoV Urbani / Binding of serum 37 to looped/cyclic peptides of protein N of SARS-CoV Urbani / Binding of serum 62 to looped/cyclic peptides of protein N of SARS-CoV Urbani / Binding of serum London to looped/cyclic peptides of protein N of SARS-CoV Urbani / Binding of serum SARS-green to looped/cyclic peptides of protein N of SARS-CoV Urbani: unit not given here
[2] = tested on: control sera (pooled serum of ten healthy LUMC hospital workers; commercial negative donor pooled serum from the Dutch bloodbank); assay type: binding, human; design: Binding of Control serum LUMC to linear peptides / Binding of Control serum Blood-bank to linear peptides / Binding of Control serum LUMC to looped peptides / Binding of Control Serum Blood-Bank to Looped peptides / Binding of Control serum LUMC to linear peptides of the protein M of SARS-CoV Urbani / Binding of Control serum Blood-bank to linear peptides of the protein M of SARS-CoV Urbani / Binding of Control serum LUMC to looped peptides of the protein M of SARS-CoV Urbani / Binding of Control Serum Blood-Bank to Looped peptides of the protein M of SARS-CoV Urbani: unit not given here
[3] = tested on: rabbit serum obtained by immunizing a rabbit with the SARS-CoV strain Frankfurt 1; assay type: binding; design: Binding of a rabbit serum to linear peptides / Binding of a rabbit serum to looped peptides / Rabbit serum linear peptides / Rabbit serum looped peptides / Binding of a rabbit serum to linear peptides of protein N of SARS-CoV Urbani (Rabbit serum linear peptides) / Binding of a rabbit serum to looped/cyclic peptides of protein N of SARS-CoV Urbani (Rabbit serum looped peptides): unit not given here
[4] = tested on: recombinant human anti-SARS-CoV antibody 03-018; assay type: binding; design: Binding of antibody 03-018 to linear peptides of the N protein of SARS-CoV Urbani / Binding of antibody 03-018 to looped/cyclic peptides of the N protein of SARS-CoV Urbani: unit not given here

| Sequence | Binding of serum 1a to looped/cyclic peptides of protein N of SARS-CoV Urbani [1] | Binding of serum 1b to looped/cyclic peptides of protein N of SARS-CoV Urbani [1] | Binding of serum 2 to looped/cyclic peptides of protein N of SARS-CoV Urbani [1] | Binding of serum 6 to looped/cyclic peptides of protein N of SARS-CoV Urbani [1] | Binding of serum 37 to looped/cyclic peptides of protein N of SARS-CoV Urbani [1] | Binding of serum 62 to looped/cyclic peptides of protein N of SARS-CoV Urbani [1] | Binding of serum London to looped/cyclic peptides of protein N of SARS-CoV Urbani [1] | Binding of serum SARS-green to looped/cyclic peptides of protein N of SARS-CoV Urbani [1] | Binding of serum SARS-yellow to looped/cyclic peptides of protein N of SARS-CoV Urbani [1] | Binding of Control Serum Blood-Bank to Looped peptides [2] | Binding of Control serum Blood-bank to linear peptides [2] | Binding of Control serum LUMC to linear peptides [2] | Binding of Control serum LUMC to looped peptides [2] | Binding of a rabbit serum to linear peptides of protein N of SARS-CoV Urbani (Rabbit serum linear peptides) [3] | Binding of a rabbit serum to looped/cyclic peptides of protein N of SARS-CoV Urbani (Rabbit serum looped peptides) [3] | Binding of antibody 03-018 to linear peptides of the N protein of SARS-CoV Urbani [4] | Binding of antibody 03-018 to looped/cyclic peptides of the N protein of SARS-CoV Urbani [4] | Binding of serum 1a to linear peptides of protein N of SARS-CoV Urbani [1] | Binding of serum 1b to linear peptides of protein N of SARS-CoV Urbani [1] | Binding of serum 2 to linear peptides of protein N of SARS-CoV Urbani [1] | also measured |
| --- | --- | --- | --- | --- | --- | --- | --- | --- | --- | --- | --- | --- | --- | --- | --- | --- | --- | --- | --- | --- | --- |
| ETALALLLLDRLNQL | 0.4 | 0.3 | 0.4 | 0.2 | 0.7 | 0.6 | 0.5 | 0.4 | 0.5 | 0.8 | 0.5 | 0.5 | 0.7 | 0.4 | 0.6 | 0.1 | 0.3 | – | – | – | Binding of serum 1a to linear peptide (PEPSCAN-ELISA) [1]: 0.2; Binding of serum 1b to linear peptide (PEPSCAN-ELISA) [1]: 0.1; Binding of serum 2 to linear peptide (PEPSCAN-ELISA) [1]: 0.1; Binding of serum 6 to linear peptide (PEPSCAN-ELISA) [1]: 0.1; Binding of serum 37 to linear peptide (PEPSCAN-ELISA) [1]: 0.6; Binding of serum 62 to linear peptide (PEPSCAN-ELISA) [1]: 0.4; Binding of serum London to linear peptide (PEPSCAN-ELISA) [1]: 0.5; Binding of serum SARS-green to linear peptide (PEPSCAN-ELISA) [1]: 0.3; Binding of serum SARS-yellow to linear peptide (PEPSCAN-ELISA) [1]: 0.5 |
| FGGPTDSTDNNQNGG | 0.2 | 0.1 | 0.2 | 0.1 | 0.4 | 0.2 | 0.2 | 0.3 | 0.1 | 0.4 | 0.6 | 0.5 | 0.4 | 0.0 | 0.1 | 0.1 | 0.2 | 0.3 | 0.1 | 0.1 | Binding of serum 6 to linear peptides of protein N of SARS-CoV Urbani [1]: 0.1; Binding of serum 37 to linear peptides of protein N of SARS-CoV Urbani [1]: 0.6; Binding of serum 62 to linear peptides of protein N of SARS-CoV Urbani [1]: 0.5; Binding of serum London to linear peptides of protein N of SARS-CoV Urbani [1]: 0.5; Binding of serum SARS-green to linear peptides of protein N of SARS-CoV Urbani [1]: 0.0; Binding of serum SARS-yellow to linear peptides of protein N of SARS-CoV Urbani [1]: 0.5 |
| FGRRGPEQTQGNFGD | 0.3 | 0.1 | 0.2 | 0.1 | 0.4 | 0.1 | 0.2 | 0.2 | 0.2 | 0.4 | 0.7 | 0.6 | 0.3 | 0.2 | 0.0 | 0.1 | 0.1 | – | – | – | Recognition of the peptide by sera of SARS-CoV infected individuals, and form (linear, looped/cyclic) in which it is recognized [1]: recognized in linear form |
| FKDNVILLNKHIDAY | 0.5 | 0.3 | 0.5 | 0.3 | 0.8 | 0.8 | 0.5 | 0.2 | 0.5 | – | – | – | – | 0.1 | 0.5 | 0.1 | 0.2 | 0.2 | 0.1 | 0.2 | Binding of serum 6 to linear peptides of protein N of SARS-CoV Urbani [1]: 0.2; Binding of serum 37 to linear peptides of protein N of SARS-CoV Urbani [1]: 0.6; Binding of serum 62 to linear peptides of protein N of SARS-CoV Urbani [1]: 0.6; Binding of serum London to linear peptides of protein N of SARS-CoV Urbani [1]: 0.5; Binding of serum SARS-green to linear peptides of protein N of SARS-CoV Urbani [1]: 0.2; Binding of serum SARS-yellow to linear peptides of protein N of SARS-CoV Urbani [1]: 0.7; Control Serum Blood-Bank Looped peptides [2]: 0.8; Control serum Blood-bank linear peptides [2]: 0.6; Control serum LUMC linear peptides [2]: 0.5; Control serum LUMC looped peptides [2]: 0.8 |
